Source: patent US11986471B2, “Compounds and methods of use” (Tango Therapeutics, Inc., priority 2018, dated 2024)

Experiments:
PRMT5 [1] = target: T1, PRMT5 (Homo sapiens, UniProt O14744); assay: PRMT5 IC50 assay with no cofactor; format: biochemical; settings: read-out: No Co-factor IC50
T1 construct: purchased Viva (custom protein)
Method in brief: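 Human PRMT5 inhibition, IC50 in μM; cofactor varied (SAM / MTA / none).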

HAP1 MTAP-deleted = assay: SDMA in-cell western assay, HAP1 MTAP-deleted cell line; format: cell-based; settings: for IC50: Homo sapiens, HAP1 MTAP-deleted cell line; for MTAP Intact/Deleted Ratio: IC50 ratio HAP1 MTAP-intact / HAP1 MTAP-deleted
Method in brief: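 Readout is cellular SDMA signal by in-cell western, with IC50 values derived from it. The cells are MTAP-null HAP1, matched to an isogenic MTAP-intact HAP1 line.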

HAP1 MTAP-intact = assay: SDMA in-cell western assay, HAP1 MTAP-intact cell line; format: cell-based; settings: Homo sapiens
Method in brief: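 IC50 values come from SDMA in-cell western staining of HAP1 cells. The MTAP-intact line carries endogenous MTAP, while its MTAP-deleted counterpart lacks MTAP entirely. A selectivity ratio of at least 3 fold marks a compound as MTAP-selective.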

PRMT5 [2] = target: T1, PRMT5; assay: PRMT5 IC50 assay in the presence of SAM as cofactor; format: biochemical
Method in brief: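 Three cofactor conditions are run: SAM-bound, MTA-bound and cofactor-free enzyme. IC50 is read from each; for the SAM and MTA arms it is divided by 1.5 and 13.5 respectively to give Ki.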

PRMT5 [3] = target: T1, PRMT5; assay: PRMT5 IC50 assay in the presence of MTA as cofactor; format: biochemical; settings: for IC50: PRMT5, MTA as cofactor; for SAM/MTA Ratio: ratio between Ki in the presence of SAM and Ki in the presence of MTA
Method in brief: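 IC50 values were measured against human PRMT5 with SAM, with MTA, or with no cofactor. Ki was derived from IC50 as Ki=IC50/1.5 with SAM and Ki=IC50/13.5 with MTA, and the Ki(SAM)/Ki(MTA) ratio was then taken.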

T1 sequence (O14744 whole entry): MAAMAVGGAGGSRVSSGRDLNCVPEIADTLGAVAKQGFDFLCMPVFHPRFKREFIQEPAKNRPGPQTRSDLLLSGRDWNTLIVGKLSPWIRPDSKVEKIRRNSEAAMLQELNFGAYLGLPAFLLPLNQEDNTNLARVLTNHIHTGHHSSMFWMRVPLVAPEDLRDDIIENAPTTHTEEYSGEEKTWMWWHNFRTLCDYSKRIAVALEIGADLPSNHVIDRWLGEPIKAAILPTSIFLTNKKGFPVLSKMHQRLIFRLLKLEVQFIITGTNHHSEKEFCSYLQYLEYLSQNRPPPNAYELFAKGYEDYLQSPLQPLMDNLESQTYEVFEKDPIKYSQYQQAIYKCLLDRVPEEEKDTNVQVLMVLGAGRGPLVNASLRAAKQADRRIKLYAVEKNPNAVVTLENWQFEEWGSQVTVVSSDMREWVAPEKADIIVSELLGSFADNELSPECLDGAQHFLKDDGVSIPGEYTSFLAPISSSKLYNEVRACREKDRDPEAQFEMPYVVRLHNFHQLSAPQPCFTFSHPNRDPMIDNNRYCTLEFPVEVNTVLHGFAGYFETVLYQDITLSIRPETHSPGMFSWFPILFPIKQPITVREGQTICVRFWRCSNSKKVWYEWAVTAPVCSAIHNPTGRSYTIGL
T1 sequence (Q9BQA1 whole entry partner): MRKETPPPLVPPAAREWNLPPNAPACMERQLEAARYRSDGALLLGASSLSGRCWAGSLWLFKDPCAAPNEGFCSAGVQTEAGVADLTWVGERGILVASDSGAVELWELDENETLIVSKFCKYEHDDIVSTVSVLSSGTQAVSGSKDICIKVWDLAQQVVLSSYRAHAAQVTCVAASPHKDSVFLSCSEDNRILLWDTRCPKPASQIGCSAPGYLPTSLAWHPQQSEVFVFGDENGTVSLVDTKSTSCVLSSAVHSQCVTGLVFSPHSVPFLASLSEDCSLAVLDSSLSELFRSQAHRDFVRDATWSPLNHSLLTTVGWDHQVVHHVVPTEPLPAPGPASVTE

Structure (SMILES)	IC50 (PRMT5 [1]) [µM]	IC50 (HAP1 MTAP-deleted) [µM]	IC50 (HAP1 MTAP-intact) [µM]	IC50 (PRMT5 [2]) [µM]	IC50 (PRMT5 [3]) [µM]	MTAP Intact/Deleted Ratio (HAP1 MTAP-deleted)	SAM/MTA Ratio (PRMT5 [3])
Cc1ncoc1COc1ccc2c(c1I)CCN(C[C@@H](O)CNC(=O)c1ccnc(NC3CCC3)c1)C2 [Compound 268, 2-(cyclobutylamino)-N-[(2S)-2-hydroxy-3-[5-iodo-6-[(4-methyloxazol-5-yl)methoxy]-3,4-dihydro-1H-isoquinolin-2-yl]propyl]pyridine-4-carboxamide]	≥ 5	≥ 10	≥ 10	0.5 to 5	0.5 to 5	C* (an IC50 ratio of less than 3 fold between the IC50 in the HAP1 MTAP-intact cell line and the HAP1 MTAP-deleted cell line)	–
O=C(NC[C@H](O)CN1CCc2cc(OCc3cnco3)ccc2C1)c1cncc(NC2CCC2)c1 [Compound 270, (S)-5-(cyclobutylamino)-N-(2-hydroxy-3-(6-(oxazol-5-ylmethoxy)-3N-dihydroisoquinolin-2(1H)-yl)propyl)nicotinamide]	0.5 to 5	< 1	< 1	0.05 to 0.5	0.05 to 0.5	C* (an IC50 ratio of less than 3 fold between the IC50 in the HAP1 MTAP-intact cell line and the HAP1 MTAP-deleted cell line)	A (a Ki ratio greater than or equal to 10 fold between the Ki in the presence of SAM and the Ki in the presence of MTA)
Cc1ncoc1COc1ccc2c(c1)CCN(C[C@@H](O)CNC(=O)c1cncc(NC3CCC3)c1)C2 [Compound 271, (S)-5-(cyclobutylamino)-N-(2-hydroxy-3-(6-((4-methyloxazol-5-yl)methoxy)-3N-dihydroisoquinolin-2(1H)-yl)propyl)nicotinamide]	0.5 to 5	< 1	< 1	0.05 to 0.5	0.05 to 0.5	C* (an IC50 ratio of less than 3 fold between the IC50 in the HAP1 MTAP-intact cell line and the HAP1 MTAP-deleted cell line)	A (a Ki ratio greater than or equal to 10 fold between the Ki in the presence of SAM and the Ki in the presence of MTA)
Cc1ncoc1COc1ccc2c(c1C)CCN(C[C@@H](O)CNC(=O)c1ccnc(NC3CCC3)c1)C2 [Compound 272, (S)-2-(cyclobutylamino)-N-(2-hydroxy-3-[5-methyl-6-((4-methyloxazol-5-yl)methoxy)-3N-dihydroisoquinolin-2(1H)-yl)propyl)isonicotinamide]	≥ 5	1 to 10	≥ 10	0.05 to 0.5	0.05 to 0.5	C* (an IC50 ratio of less than 3 fold between the IC50 in the HAP1 MTAP-intact cell line and the HAP1 MTAP-deleted cell line)	A (a Ki ratio greater than or equal to 10 fold between the Ki in the presence of SAM and the Ki in the presence of MTA)
Cc1c(OCc2cnn[nH]2)ccc2c1CCN(C[C@@H](O)CNC(=O)c1ccnc(NC3CCC3)c1)C2 [Compound 273, (S)—N-(3-(6-((1H-1,2,3-triazol-5-yl)methoxy)-5-methyl-3,4-dihydroisoquinolin-2(1H)-yl)-2-hydroxypropyl)-2-(cyclobutylamino)isonicotinamide]	≥ 5	1 to 10	≥ 10	0.5 to 5	0.5 to 5	C* (an IC50 ratio of less than 3 fold between the IC50 in the HAP1 MTAP-intact cell line and the HAP1 MTAP-deleted cell line)	–
CC(=O)N1CCC(Nc2cc(C(=O)NC[C@H](O)CN3CCc4c(ccc(OCc5ocnc5C)c4C)C3)ncn2)CC1 [Compound 274, (S)-6-((1-acetylpiperidin-4-yl)amino)-N-(2-hydroxy-3-(5-methyl-6-((4-methyloxazol-5-yl)methoxy)-3,4-dihydroisoquinolin-2(1H)-yl)propyl)pyrimidine-4-carboxamide]	≥ 5	1 to 10	≥ 10	0.05 to 0.5	0.05 to 0.5	C* (an IC50 ratio of less than 3 fold between the IC50 in the HAP1 MTAP-intact cell line and the HAP1 MTAP-deleted cell line)	A (a Ki ratio greater than or equal to 10 fold between the Ki in the presence of SAM and the Ki in the presence of MTA)
Cn1nccc1COc1ccc2c(c1Cl)CCN(C[C@@H](O)CNC(=O)c1ccnc(NC3CCCC3)c1)C2 [Compound 275, (S)—N-(3-(5-chloro-6-((1-methyl-1H-pyrazol-5-yl)methoxy)-3,4-dihydroisoquinolin-2(1H)-yl)-2-hydroxypropyl)-2-(cyclopentylamino)isonicotinamide]	≥ 5	≥ 10	≥ 10	0.5 to 5	0.5 to 5	C* (an IC50 ratio of less than 3 fold between the IC50 in the HAP1 MTAP-intact cell line and the HAP1 MTAP-deleted cell line)	A (a Ki ratio greater than or equal to 10 fold between the Ki in the presence of SAM and the Ki in the presence of MTA)

Further lines, with some results ahead:

IC50 (PRMT5 [1]) [µM]	IC50 (HAP1 MTAP-deleted) [µM]	IC50 (HAP1 MTAP-intact) [µM]	IC50 (PRMT5 [2]) [µM]	IC50 (PRMT5 [3]) [µM]	Structure (SMILES)	MTAP Intact/Deleted Ratio (HAP1 MTAP-deleted)	SAM/MTA Ratio (PRMT5 [3])
≥ 5	≥ 10	≥ 10	0.5 to 5	0.5 to 5	Cc1c(OCc2ccnn2C)ccc2c1CCN(C[C@@H](O)CNC(=O)c1ccnc(NC3CCCC3)c1)C2 [Compound 277, (S)-2-(cyclopentylamino)-N-(2-hydroxy-3-(5-methyl-6-((1-methyl-1H-pyrazol-5-yl)methoxy)-3N-dihydroisoquinolin-2(1H)-yl)propyl)isonicotinamide]	C* (an IC50 ratio of less than 3 fold between the IC50 in the HAP1 MTAP-intact cell line and the HAP1 MTAP-deleted cell line)	A (a Ki ratio greater than or equal to 10 fold between the Ki in the presence of SAM and the Ki in the presence of MTA)
≥ 5	≥ 10	≥ 10	0.5 to 5	0.5 to 5	Cc1c(OCc2ccnn2C)ccc2c1CCN(C[C@@H](O)CNC(=O)c1ccnc(NC3CCCCC3)c1)C2 [Compound 278, (S)-2-(cyclohexylamino)-N-(2-hydroxy-3-(5-methyl-6-((1-methyl-1H-pyrazol-5-yl)methoxy)-3N-dihydroisoquinolin-2(1H)-yl)propyl)isonicotinamide]	C* (an IC50 ratio of less than 3 fold between the IC50 in the HAP1 MTAP-intact cell line and the HAP1 MTAP-deleted cell line)	A (a Ki ratio greater than or equal to 10 fold between the Ki in the presence of SAM and the Ki in the presence of MTA)
≥ 5	1 to 10	≥ 10	0.05 to 0.5	0.05 to 0.5	O=C(NC[C@H](O)CN1CCc2c(Cl)c(OCc3cnco3)cc(F)c2C1)c1ccnc(NC2CCC2)c1 [Compound 279, N-[(2S)-3-[5-chloro-8-fluoro-6-(oxazol-5-ylmethoxy)-3,4-dihydro-1H-isoquinolin-2-yl]-2-hydroxy-propyl]-2-(cyclobutylamino)pyridine-4-carboxamide]	C* (an IC50 ratio of less than 3 fold between the IC50 in the HAP1 MTAP-intact cell line and the HAP1 MTAP-deleted cell line)	A (a Ki ratio greater than or equal to 10 fold between the Ki in the presence of SAM and the Ki in the presence of MTA)
≥ 5	< 1	< 1	0.05 to 0.5	0.5 to 5	O=C(NC[C@H](O)CN1CCc2c(ccc(OCc3cn[nH]c3)c2Cl)C1)c1ccnc(NC2CCC2)c1 [Compound 280, N-[(2S)-3-[5-chloro-6-(1H-pyrazol-4-ylmethoxy)-3,4-dihydro-1H-isoquinolin-2-yl]-2-hydroxy-propyl]-2-(cyclobutylamino)pyridine-4-carboxamide]	C* (an IC50 ratio of less than 3 fold between the IC50 in the HAP1 MTAP-intact cell line and the HAP1 MTAP-deleted cell line)	–
≥ 5	1 to 10	≥ 10	0.5 to 5	0.05 to 0.5	O=C(NC[C@H](O)CN1CCc2cc(OCc3cnco3)c(Cl)cc2C1)c1ccnc(NC2CCC2)c1 [Compound 281, N-[(2S)-3-[7-chloro-6-(oxazol-5-ylmethoxy)-3,4-dihydro-1H-isoquinolin-2-yl]-2-hydroxy-propyl]-2-(cyclobutylamino)pyridine-4-carboxamide]	C* (an IC50 ratio of less than 3 fold between the IC50 in the HAP1 MTAP-intact cell line and the HAP1 MTAP-deleted cell line)	A (a Ki ratio greater than or equal to 10 fold between the Ki in the presence of SAM and the Ki in the presence of MTA)
≥ 5	≥ 10	≥ 10	0.5 to 5	0.5 to 5	Cn1nccc1COc1cc(F)c2c(c1Cl)CCN(C[C@@H](O)CNC(=O)c1ccnc(NC3CCC3)c1)C2 [Compound 282, N-[(2S)-3-[5-chloro-8-fluoro-6-[(2-methylpyrazol-3-yl)methoxy]-3,4-dihydro-1H-isoquinolin-2-yl]-2-hydroxy-propyl]-2-(cyclobutylamino)pyridine-4-carboxamide]	C* (an IC50 ratio of less than 3 fold between the IC50 in the HAP1 MTAP-intact cell line and the HAP1 MTAP-deleted cell line)	A (a Ki ratio greater than or equal to 10 fold between the Ki in the presence of SAM and the Ki in the presence of MTA)
